Results taken from ChEMBL document CHEMBL1139302, “Modification of the N-terminal sulfonyl residue in 3-amidinophenylalanine-based matriptase inhibitors” (Bioorg Med Chem Lett, 2009).

How the values were obtained:
[1] = target: Urokinase-type plasminogen activator (Homo sapiens, UniProt P00749); assay: Inhibition of uPA
Plasminogen = Plasminogen (Homo sapiens, UniProt P00747); assay: Inhibition of plasmin
Prothrombin = Prothrombin (Homo sapiens, UniProt P00734); assay: Inhibition of thrombin
Coagulation factor X = Coagulation factor X (Homo sapiens, UniProt P00742); assay: Inhibition of factor 10a
[2] = target: T1, Suppressor of tumorigenicity 14 protein (Homo sapiens, UniProt Q9Y5Y6); assay: Inhibition of matriptase
T1 sequence (Q9Y5Y6 whole entry): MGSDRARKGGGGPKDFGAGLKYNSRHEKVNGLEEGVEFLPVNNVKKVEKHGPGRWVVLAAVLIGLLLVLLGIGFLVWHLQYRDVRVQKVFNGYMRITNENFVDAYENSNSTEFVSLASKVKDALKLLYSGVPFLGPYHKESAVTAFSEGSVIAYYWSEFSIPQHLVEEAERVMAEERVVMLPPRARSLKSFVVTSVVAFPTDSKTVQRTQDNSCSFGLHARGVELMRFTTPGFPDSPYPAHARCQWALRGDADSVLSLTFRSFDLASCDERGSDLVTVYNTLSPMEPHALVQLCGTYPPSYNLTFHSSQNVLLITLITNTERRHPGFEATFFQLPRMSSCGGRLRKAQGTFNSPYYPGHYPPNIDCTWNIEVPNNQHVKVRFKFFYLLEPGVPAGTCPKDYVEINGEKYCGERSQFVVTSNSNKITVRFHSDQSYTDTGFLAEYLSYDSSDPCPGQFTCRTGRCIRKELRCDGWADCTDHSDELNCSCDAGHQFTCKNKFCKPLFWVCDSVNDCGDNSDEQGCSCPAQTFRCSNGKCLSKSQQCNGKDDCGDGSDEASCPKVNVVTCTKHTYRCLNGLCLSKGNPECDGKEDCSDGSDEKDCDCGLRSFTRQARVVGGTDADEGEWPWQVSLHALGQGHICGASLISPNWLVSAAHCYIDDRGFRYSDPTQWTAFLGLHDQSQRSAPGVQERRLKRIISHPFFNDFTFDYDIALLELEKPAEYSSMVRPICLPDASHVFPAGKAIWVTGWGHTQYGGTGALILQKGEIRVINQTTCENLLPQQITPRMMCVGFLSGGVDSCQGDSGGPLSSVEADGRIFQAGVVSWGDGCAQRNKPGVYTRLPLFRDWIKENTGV

Plasminogen, sequence (P00747 97-580 limits assumed): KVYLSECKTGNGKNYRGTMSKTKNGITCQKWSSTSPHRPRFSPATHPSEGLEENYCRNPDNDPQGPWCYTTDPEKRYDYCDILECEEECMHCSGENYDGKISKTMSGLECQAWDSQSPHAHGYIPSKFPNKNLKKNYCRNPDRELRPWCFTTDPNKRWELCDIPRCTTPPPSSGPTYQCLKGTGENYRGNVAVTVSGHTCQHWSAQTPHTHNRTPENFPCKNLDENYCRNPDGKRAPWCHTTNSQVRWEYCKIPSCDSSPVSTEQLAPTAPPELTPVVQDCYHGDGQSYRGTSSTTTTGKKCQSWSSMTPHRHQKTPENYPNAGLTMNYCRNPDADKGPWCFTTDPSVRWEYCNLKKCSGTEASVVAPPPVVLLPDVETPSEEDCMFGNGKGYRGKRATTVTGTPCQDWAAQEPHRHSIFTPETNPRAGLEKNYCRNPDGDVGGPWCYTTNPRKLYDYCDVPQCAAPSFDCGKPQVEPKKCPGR
Plasminogen, sequence (P00747 581-810 limits assumed): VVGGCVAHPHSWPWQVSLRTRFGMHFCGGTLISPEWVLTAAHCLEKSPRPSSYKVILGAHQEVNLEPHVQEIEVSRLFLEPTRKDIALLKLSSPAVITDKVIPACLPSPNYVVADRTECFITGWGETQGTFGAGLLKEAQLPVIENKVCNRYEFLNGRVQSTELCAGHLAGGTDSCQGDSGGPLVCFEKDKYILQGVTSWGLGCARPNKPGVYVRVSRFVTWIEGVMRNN
Coagulation factor X, sequence (P00742 41-179 limits assumed): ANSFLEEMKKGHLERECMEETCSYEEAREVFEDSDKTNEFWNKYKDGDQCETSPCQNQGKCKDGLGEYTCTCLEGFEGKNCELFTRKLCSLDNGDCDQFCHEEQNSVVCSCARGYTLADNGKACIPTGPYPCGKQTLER
Coagulation factor X, sequence (P00742 235-488 limits assumed): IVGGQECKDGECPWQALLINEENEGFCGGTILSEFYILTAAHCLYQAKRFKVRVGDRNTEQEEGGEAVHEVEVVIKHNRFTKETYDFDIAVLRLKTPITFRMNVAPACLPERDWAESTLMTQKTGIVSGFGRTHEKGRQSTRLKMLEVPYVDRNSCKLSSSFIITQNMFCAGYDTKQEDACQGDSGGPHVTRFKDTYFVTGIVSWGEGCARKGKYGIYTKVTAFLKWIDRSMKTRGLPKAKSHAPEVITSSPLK

Ki [1] [µM]	Ki (Plasminogen) [µM]	Ki (Prothrombin) [µM]	Ki (Coagulation factor X) [µM]	Ki [2] [µM]	Structure (SMILES)
3.8	0.2	0.46	4.4	0.001	N=C(N)c1cccc(C[C@H](NS(=O)(=O)c2cccc(CCCCN)c2)C(=O)N2CCC(CCN)CC2)c1
6.6	0.028	0.52	0.01	8e-05	N=C(N)c1cccc(C[C@H](NS(=O)(=O)c2cccc(C3CCC(N)=NC3)c2)C(=O)N2CCC(CCN)CC2)c1 (stereo partly specified)
3.6	0.23	0.11	0.25	0.0016	N=C(N)c1cccc(C[C@H](NS(=O)(=O)c2cccc(-c3ccc(N)nc3)c2)C(=O)N2CCC(CCN)CC2)c1
> 1000	16	> 1000	92		NCCC(=O)Nc1cccc(S(=O)(=O)N[C@@H](Cc2cccc(CN)c2)C(=O)N2CCC(CCN)CC2)c1
11	1	0.15	3.5		N=C(N)c1cccc(CC(NS(=O)(=O)c2cccc(-c3cccnc3)c2)C(=O)N2CCC(CCN)CC2)c1 (racemic)
3.7	0.5	5.1	11.2	0.003	N=C(N)c1cccc(C[C@H](NS(=O)(=O)c2cccc(NC(=O)C3CNC3)c2)C(=O)N2CCC(CCN)CC2)c1
8.7	0.21	0.31	1.7		Cc1nccc(-c2cccc(S(=O)(=O)N[C@@H](Cc3cccc(C(=N)N)c3)C(=O)N3CCC(CCN)CC3)c2)n1
10	0.12	0.04	0.36	0.007	COc1ccc(-c2cccc(S(=O)(=O)NC(Cc3cccc(C(=N)N)c3)C(=O)N3CCC(CCN)CC3)c2)cc1 (racemic)
3.7	0.11	0.16	1.6		N=C(N)c1cccc(CC(NS(=O)(=O)c2cccc(-c3ccncc3)c2)C(=O)N2CCC(CCN)CC2)c1 (racemic)
3.2	2.1	1.2	14	0.041	CCOC(=O)Nc1cccc(S(=O)(=O)N[C@@H](Cc2cccc(C(=N)N)c2)C(=O)N2CCC(CCN)CC2)c1
6.9	0.214	0.033	0.63		CCc1ccc(-c2cccc(S(=O)(=O)NC(Cc3cccc(C(=N)N)c3)C(=O)N3CCC(CCN)CC3)c2)cc1 (racemic)
8.1	3.5	1.9	20	0.18	CCC(=O)Nc1cccc(S(=O)(=O)N[C@@H](Cc2cccc(C(=N)N)c2)C(=O)N2CCC(CCN)CC2)c1
5.2	0.46	2.2	8	0.0067	N=C(N)c1cccc(C[C@H](NS(=O)(=O)c2cccc(NCCCN)c2)C(=O)N2CCC(CCN)CC2)c1
				> 1000	NCCC(=O)Nc1cccc(S(=O)(=O)N[C@@H](CCCc2ccccc2)C(=O)N2CCC(CCN)CC2)c1
				> 1000	NCCC(=O)Nc1cccc(S(=O)(=O)N[C@@H](CCc2ccccc2)C(=O)N2CCC(CCN)CC2)c1
9.6	0.08	0.24	3.4		CC(C)Oc1ccc(-c2cccc(S(=O)(=O)NC(Cc3cccc(C(=N)N)c3)C(=O)N3CCC(CCN)CC3)c2)cc1 (racemic)
				10	NCCC(=O)Nc1cccc(S(=O)(=O)N[C@@H](Cc2ccccc2)C(=O)N2CCC(CCN)CC2)c1
3	2.6	5.5	61		N=C(N)c1cccc(C[C@H](NS(=O)(=O)c2cccc(NC(=O)CCO)c2)C(=O)N2CCC(CCN)CC2)c1
8.6	0.15	0.45	0.66	0.006	CCOc1ccc(-c2cccc(S(=O)(=O)NC(Cc3cccc(C(=N)N)c3)C(=O)N3CCC(CCN)CC3)c2)cc1 (racemic)
> 1000	64.8	325	430	2.8	NCCC(=O)Nc1cccc(S(=O)(=O)N[C@@H](Cc2ccc(CN)cc2)C(=O)N2CCC(CCN)CC2)c1
14	0.23	1.1	0.42		COc1ccc(-c2cccc(S(=O)(=O)NC(Cc3cccc(C(=N)N)c3)C(=O)N3CCC(CCN)CC3)c2)cc1OC (racemic)
				0.0038	N=C(N)c1cccc(C[C@H](NS(=O)(=O)c2cccc(NC(=O)CCN)c2)C(=O)N2CCC(CCN)CC2)c1
129	0.776	9.8	55		COc1ccc(-c2cccc(S(=O)(=O)NC(Cc3cccc(CN)c3)C(=O)N3CCC(CCN)CC3)c2)cc1 (racemic)
12	0.334	0.051	5.6		N=C(N)c1cccc(CC(NS(=O)(=O)c2cccc(-c3cccc(Cl)c3)c2)C(=O)N2CCC(CCN)CC2)c1 (racemic)
11	0.183	0.01	0.91		N=C(N)c1cccc(CC(NS(=O)(=O)c2cccc(-c3ccc(Cl)cc3)c2)C(=O)N2CCC(CCN)CC2)c1 (racemic)
8.3	0.55	0.056	5.4	0.11	N=C(N)c1cccc(CC(NS(=O)(=O)c2cccc(-c3ccccc3)c2)C(=O)N2CCC(CCN)CC2)c1 (racemic)
12	0.085	0.011	0.7		N=C(N)c1cccc(CC(NS(=O)(=O)c2cccc(-c3ccccc3Cl)c2)C(=O)N2CCC(CCN)CC2)c1 (racemic)
6.2	0.38	0.19	0.15		N=C(N)c1cccc(CC(NS(=O)(=O)c2cccc(-c3ccc4[nH]ccc4c3)c2)C(=O)N2CCC(CCN)CC2)c1 (racemic)
